Reference: the NIST ThermoML archive (doi:10.1021/je100148h)

Test: xn = mol fraction of the nth substance listed
Conditions: Fluid (supercritical or subcritical phases), Burnett expansion method

CCC [propane] + O=C=O
Conditions	mass density [kg/m3]
319.99 K, 766.06 kPa, x2 = 0.8017	13.1764
320 K, 410.29 kPa, x2 = 0.8017	6.9285
320 K, 561.41 kPa, x2 = 0.8017	9.5546
320 K, 1040.9 kPa, x2 = 0.8017	18.1699
320 K, 1137.2 kPa, x2 = 0.5158	20.5385
320 K, 1406.4 kPa, x2 = 0.8017	25.056
320 K, 1885.5 kPa, x2 = 0.8017	34.5507
320 K, 2500.6 kPa, x2 = 0.8017	47.6423
320 K, 3266.5 kPa, x2 = 0.8017	65.693
320.01 K, 158.39 kPa, x2 = 0.8017	2.6416
320.01 K, 177.71 kPa, x2 = 0.5158	2.9791
320.01 K, 217.81 kPa, x2 = 0.8017	3.6431
320.01 K, 244.02 kPa, x2 = 0.5158	4.1102
320.01 K, 299.21 kPa, x2 = 0.8017	5.0239
320.01 K, 334.43 kPa, x2 = 0.5158	5.6704
320.01 K, 457.2 kPa, x2 = 0.5158	7.8226
320.01 K, 622.82 kPa, x2 = 0.5158	10.7917
320.01 K, 844.37 kPa, x2 = 0.5158	14.8878
320.01 K, 1518.1 kPa, x2 = 0.5158	28.332
320.01 K, 1999.6 kPa, x2 = 0.5158	39.0832
320.01 K, 2584 kPa, x2 = 0.5158	53.9126
329.98 K, 579.89 kPa, x2 = 0.8017	9.5517
329.99 K, 791.85 kPa, x2 = 0.8017	13.1719
329.99 K, 1457.4 kPa, x2 = 0.8017	25.0477
329.99 K, 3418.1 kPa, x2 = 0.8017	65.6701
330 K, 308.75 kPa, x2 = 0.8017	5.0223
330 K, 423.55 kPa, x2 = 0.8017	6.9261
330 K, 1958.2 kPa, x2 = 0.8017	34.5379
330 K, 2604.9 kPa, x2 = 0.8017	47.625
330 K, 4401.1 kPa, x2 = 0.8017	90.5446
330.01 K, 163.4 kPa, x2 = 0.8017	2.6407
330.01 K, 183.36 kPa, x2 = 0.5158	2.9774
330.01 K, 224.73 kPa, x2 = 0.8017	3.6418
330.01 K, 251.86 kPa, x2 = 0.5158	4.1078
330.01 K, 345.31 kPa, x2 = 0.5158	5.667
330.01 K, 472.35 kPa, x2 = 0.5158	7.8181
330.01 K, 644.04 kPa, x2 = 0.5158	10.7856
330.01 K, 874.2 kPa, x2 = 0.5158	14.879
330.01 K, 1077.1 kPa, x2 = 0.8017	18.1629
330.01 K, 1179.4 kPa, x2 = 0.5158	20.5259
330.01 K, 1578.5 kPa, x2 = 0.5158	28.3153
330.01 K, 2086.8 kPa, x2 = 0.5158	39.0593
330.01 K, 2711.7 kPa, x2 = 0.5158	53.8795
330.01 K, 3442.6 kPa, x2 = 0.5158	74.3214
339.99 K, 598.29 kPa, x2 = 0.8017	9.5479
339.99 K, 817.54 kPa, x2 = 0.8017	13.1668
339.99 K, 1508.1 kPa, x2 = 0.8017	25.0378
340 K, 231.59 kPa, x2 = 0.8017	3.6405
340 K, 436.79 kPa, x2 = 0.8017	6.9234
340 K, 2030.2 kPa, x2 = 0.8017	34.5251
340 K, 2708.2 kPa, x2 = 0.8017	47.606
340 K, 3567.9 kPa, x2 = 0.8017	65.643
340 K, 4621.3 kPa, x2 = 0.8017	90.5058
340.01 K, 168.38 kPa, x2 = 0.8017	2.6397
340.01 K, 189.01 kPa, x2 = 0.5158	2.9763
340.01 K, 259.67 kPa, x2 = 0.5158	4.1062
340.01 K, 318.3 kPa, x2 = 0.8017	5.0202
340.01 K, 487.5 kPa, x2 = 0.5158	7.8151
340.01 K, 665.18 kPa, x2 = 0.5158	10.7812
340.01 K, 903.91 kPa, x2 = 0.5158	14.873
340.01 K, 1113.1 kPa, x2 = 0.8017	18.156
340.01 K, 1221.3 kPa, x2 = 0.5158	20.5179
340.01 K, 1638.3 kPa, x2 = 0.5158	28.3036
340.01 K, 2172.9 kPa, x2 = 0.5158	39.0436
340.01 K, 2837.3 kPa, x2 = 0.5158	53.8584
340.01 K, 3628.8 kPa, x2 = 0.5158	74.2902
340.01 K, 4509 kPa, x2 = 0.5158	102.472
340.01 K, 5849.8 kPa, x2 = 0.8017	124.787
340.02 K, 356.19 kPa, x2 = 0.5158	5.6647
350.01 K, 173.33 kPa, x2 = 0.8017	2.6389
350.01 K, 194.63 kPa, x2 = 0.5158	2.9748
350.01 K, 267.49 kPa, x2 = 0.5158	4.1042
350.01 K, 367.05 kPa, x2 = 0.5158	5.662
350.01 K, 502.56 kPa, x2 = 0.5158	7.8112
350.01 K, 616.66 kPa, x2 = 0.8017	9.5444
350.01 K, 686.24 kPa, x2 = 0.5158	10.776
350.01 K, 843.17 kPa, x2 = 0.8017	13.1618
350.01 K, 933.45 kPa, x2 = 0.5158	14.8658
350.01 K, 1149 kPa, x2 = 0.8017	18.1499
350.01 K, 1263 kPa, x2 = 0.5158	20.5077
350.01 K, 1558.6 kPa, x2 = 0.8017	25.0284
350.01 K, 1697.7 kPa, x2 = 0.5158	28.2897
350.01 K, 2101.9 kPa, x2 = 0.8017	34.5131
350.01 K, 2258.2 kPa, x2 = 0.5158	39.0243
350.01 K, 2810.8 kPa, x2 = 0.8017	47.5894
350.01 K, 2961.5 kPa, x2 = 0.5158	53.8306
350.01 K, 3716.3 kPa, x2 = 0.8017	65.6181
350.01 K, 3812 kPa, x2 = 0.5158	74.2525
350.01 K, 4782.9 kPa, x2 = 0.5158	102.417
350.01 K, 4838.8 kPa, x2 = 0.8017	90.4734
350.01 K, 5812.8 kPa, x2 = 0.5158	141.262
350.02 K, 238.49 kPa, x2 = 0.8017	3.6392
350.02 K, 327.8 kPa, x2 = 0.8017	5.0187
350.02 K, 450.01 kPa, x2 = 0.8017	6.9209
350.02 K, 6175.3 kPa, x2 = 0.8017	124.74
360.01 K, 200.24 kPa, x2 = 0.5158	2.9738
360.01 K, 275.27 kPa, x2 = 0.5158	4.1028
360.01 K, 377.87 kPa, x2 = 0.5158	5.66
360.01 K, 517.62 kPa, x2 = 0.5158	7.8085
360.01 K, 707.21 kPa, x2 = 0.5158	10.7723
360.01 K, 962.87 kPa, x2 = 0.5158	14.8606
360.01 K, 1184.7 kPa, x2 = 0.8017	18.1432
360.01 K, 1304.5 kPa, x2 = 0.5158	20.5005
360.01 K, 1608.9 kPa, x2 = 0.8017	25.0192
360.01 K, 1756.6 kPa, x2 = 0.5158	28.2797
360.01 K, 2173.2 kPa, x2 = 0.8017	34.4994
360.01 K, 2342.9 kPa, x2 = 0.5158	39.0102
360.01 K, 2912.6 kPa, x2 = 0.8017	47.5708
360.01 K, 3084.3 kPa, x2 = 0.5158	53.8108
360.01 K, 3992.6 kPa, x2 = 0.5158	74.2241
360.01 K, 5052 kPa, x2 = 0.5158	102.377
